In patent publication US20030086872A1, “SUT-2 and SUT-3 genes, proteins and assays for inhibitors of lymphocyte adhesion” (priority 2001, published 2003):
“Also recorded” adds a separate entry of the source.

How the values were obtained:
SUT-3 = molecular target: T1, SUT-3 (Homo sapiens, UniProt Q86WA9); assay: Sulfate uptake by Sf9 insect cells infected with baculovirus expressing SUT-3; assay type: cell-based; details: 1 mM DIDS; uptake of 500 μM Na2SO4; Sf9 cells infected at MOI of 5
T1 construct: The full length SLC26A11 ORF was PCR amplified from IMAGE clone; expressed in transfected cells; host or cells: Sf9 insect cells infected with recombinant baculovirus (pVL1393-SUT-3, polyhedrin promoter)
T1 sequence (Q86WA9 1-606): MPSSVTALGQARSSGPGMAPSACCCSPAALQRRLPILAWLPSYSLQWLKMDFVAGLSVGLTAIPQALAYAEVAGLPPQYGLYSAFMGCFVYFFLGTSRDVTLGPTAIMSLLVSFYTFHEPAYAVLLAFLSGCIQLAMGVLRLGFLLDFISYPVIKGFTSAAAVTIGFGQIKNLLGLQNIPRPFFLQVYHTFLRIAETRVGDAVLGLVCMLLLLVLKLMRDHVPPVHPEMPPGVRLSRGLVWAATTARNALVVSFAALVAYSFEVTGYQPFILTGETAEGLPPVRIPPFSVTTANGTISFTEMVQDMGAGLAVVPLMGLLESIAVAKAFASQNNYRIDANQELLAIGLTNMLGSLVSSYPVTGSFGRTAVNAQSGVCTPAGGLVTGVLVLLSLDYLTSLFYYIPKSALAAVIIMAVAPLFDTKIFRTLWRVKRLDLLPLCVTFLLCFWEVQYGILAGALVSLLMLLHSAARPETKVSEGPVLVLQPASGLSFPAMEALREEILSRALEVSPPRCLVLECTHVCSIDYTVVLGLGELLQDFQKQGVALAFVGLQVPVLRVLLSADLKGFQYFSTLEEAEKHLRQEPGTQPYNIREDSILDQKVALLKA
Procedure: The full length SLC26A11 ORF was PCR amplified from IMAGE clone N^o 4793646, with 10 pmol of primers ATG-SUT-3 (5′-[…]) (SEQ ID NO: 21) and STOP-SUT-3 (5′-[…]-3′)(SEQ ID NO: 22), using 3 units of Pfu (Promega) in its reaction buffer with 400 μM dNTP. PCR cycles were 30×(94° C., 1′, 60° C., 1′, 72° C., 4′). The PCR product was then phosphorylated at its 5′ extremities using 2 units of T4 Polynucleotide Kinase (PROMEGA). 2 μg of pVL1393 vector (BD Biosciences) were digested with 10 units of EcoRI and NotI endonucleases, extremities were blunt-ended with 10 units of T4 DNA polymerase (PROMEGA) and 5′ extremities were dephosphated with 1 unit of Calf Intestine Phosphatase (Boehringer). 100 ng of purified insert and vector were then ligated together using 1 unit of T4 DNA Ligase (Biolabs). All enzymes were used according to supplier's instructions. After restriction analysis, DNA sequencing was performed using the Big Dye Sequencing Kit (Perkin Elmer) according to manufacturer's protocol. […]
For all experiments, 80 cm^2 flasks containing 60% confluent Sf9 cells were infected at a MOI of 5 and incubated for 3 days at 27° C. for protein expression. […] Protein concentration was evaluated using the BIO-RAD protein Assay Kit according to the manufacturer's protocol and cell-associated radioactivity was determined in a Tri-Carb 2100 liquid scintillation counter (Packard). […]

DTD = molecular target: T2, DTD (Homo sapiens, UniProt P50443); details: cited from earlier work
T2 sequence (P50443 1-739): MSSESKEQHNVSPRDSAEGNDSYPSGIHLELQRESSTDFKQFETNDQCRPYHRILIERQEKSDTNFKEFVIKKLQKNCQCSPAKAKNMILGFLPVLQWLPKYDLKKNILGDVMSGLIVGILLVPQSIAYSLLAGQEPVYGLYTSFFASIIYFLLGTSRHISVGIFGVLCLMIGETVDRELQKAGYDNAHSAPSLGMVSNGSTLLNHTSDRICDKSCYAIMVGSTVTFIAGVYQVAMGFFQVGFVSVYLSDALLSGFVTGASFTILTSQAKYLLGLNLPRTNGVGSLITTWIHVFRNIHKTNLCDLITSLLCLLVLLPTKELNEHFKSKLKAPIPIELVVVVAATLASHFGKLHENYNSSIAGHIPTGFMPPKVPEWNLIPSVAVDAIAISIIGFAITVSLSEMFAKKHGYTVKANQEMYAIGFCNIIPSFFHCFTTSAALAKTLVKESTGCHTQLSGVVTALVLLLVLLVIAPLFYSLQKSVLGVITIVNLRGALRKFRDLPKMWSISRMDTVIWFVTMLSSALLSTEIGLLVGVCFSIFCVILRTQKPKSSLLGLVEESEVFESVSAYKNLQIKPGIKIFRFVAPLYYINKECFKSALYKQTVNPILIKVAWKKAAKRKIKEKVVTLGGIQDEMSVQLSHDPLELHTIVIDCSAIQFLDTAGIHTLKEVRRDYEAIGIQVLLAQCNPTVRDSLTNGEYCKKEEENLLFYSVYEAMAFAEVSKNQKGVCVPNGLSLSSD

NaSi-1 = molecular target: T3, NaSi-1 (Rattus norvegicus, UniProt Q07782); details: rat kidney and small intestine; cited from earlier work
T3 sequence (Q07782 1-595): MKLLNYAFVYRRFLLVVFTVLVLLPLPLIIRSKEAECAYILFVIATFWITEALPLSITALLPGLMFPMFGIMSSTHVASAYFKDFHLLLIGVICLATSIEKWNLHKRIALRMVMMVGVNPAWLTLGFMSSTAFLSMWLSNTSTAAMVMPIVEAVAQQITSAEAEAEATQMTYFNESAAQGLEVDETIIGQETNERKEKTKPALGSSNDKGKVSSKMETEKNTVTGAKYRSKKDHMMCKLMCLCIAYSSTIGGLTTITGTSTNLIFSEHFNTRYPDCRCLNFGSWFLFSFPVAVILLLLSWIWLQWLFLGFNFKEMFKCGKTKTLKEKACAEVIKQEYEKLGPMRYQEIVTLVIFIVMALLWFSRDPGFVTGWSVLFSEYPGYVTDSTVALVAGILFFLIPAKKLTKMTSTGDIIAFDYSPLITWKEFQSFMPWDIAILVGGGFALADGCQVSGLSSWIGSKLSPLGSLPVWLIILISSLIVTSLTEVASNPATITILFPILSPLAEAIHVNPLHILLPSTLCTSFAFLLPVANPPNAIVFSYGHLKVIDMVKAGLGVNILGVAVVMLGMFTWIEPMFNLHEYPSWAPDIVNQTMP

DRA = molecular target: T4, DRA (Homo sapiens, UniProt P40879); details: cited from earlier work
T4 sequence (P40879 1-764): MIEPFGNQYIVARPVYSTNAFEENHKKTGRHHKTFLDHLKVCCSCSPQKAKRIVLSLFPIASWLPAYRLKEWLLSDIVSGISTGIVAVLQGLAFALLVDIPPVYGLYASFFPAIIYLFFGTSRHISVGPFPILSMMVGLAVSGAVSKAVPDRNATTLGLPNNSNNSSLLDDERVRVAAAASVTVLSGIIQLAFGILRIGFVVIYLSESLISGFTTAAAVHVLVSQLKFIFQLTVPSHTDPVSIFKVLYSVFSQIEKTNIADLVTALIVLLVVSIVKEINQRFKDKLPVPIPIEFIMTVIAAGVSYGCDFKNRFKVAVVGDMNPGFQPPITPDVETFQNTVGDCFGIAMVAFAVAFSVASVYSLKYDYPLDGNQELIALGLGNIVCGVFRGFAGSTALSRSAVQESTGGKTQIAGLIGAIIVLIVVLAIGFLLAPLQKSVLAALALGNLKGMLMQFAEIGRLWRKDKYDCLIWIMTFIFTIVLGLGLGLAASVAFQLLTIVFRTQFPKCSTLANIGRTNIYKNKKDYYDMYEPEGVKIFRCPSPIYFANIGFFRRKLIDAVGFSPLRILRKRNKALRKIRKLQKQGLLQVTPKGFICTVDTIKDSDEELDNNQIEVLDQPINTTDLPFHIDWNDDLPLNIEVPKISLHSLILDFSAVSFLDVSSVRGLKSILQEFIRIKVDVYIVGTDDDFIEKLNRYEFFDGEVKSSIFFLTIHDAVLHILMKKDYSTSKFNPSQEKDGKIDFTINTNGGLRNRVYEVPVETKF

SUT-1 = molecular target: T5, SUT-1 (Homo sapiens, UniProt Q9UKG4); details: cited from earlier work
T5 sequence (Q9UKG4 1-626): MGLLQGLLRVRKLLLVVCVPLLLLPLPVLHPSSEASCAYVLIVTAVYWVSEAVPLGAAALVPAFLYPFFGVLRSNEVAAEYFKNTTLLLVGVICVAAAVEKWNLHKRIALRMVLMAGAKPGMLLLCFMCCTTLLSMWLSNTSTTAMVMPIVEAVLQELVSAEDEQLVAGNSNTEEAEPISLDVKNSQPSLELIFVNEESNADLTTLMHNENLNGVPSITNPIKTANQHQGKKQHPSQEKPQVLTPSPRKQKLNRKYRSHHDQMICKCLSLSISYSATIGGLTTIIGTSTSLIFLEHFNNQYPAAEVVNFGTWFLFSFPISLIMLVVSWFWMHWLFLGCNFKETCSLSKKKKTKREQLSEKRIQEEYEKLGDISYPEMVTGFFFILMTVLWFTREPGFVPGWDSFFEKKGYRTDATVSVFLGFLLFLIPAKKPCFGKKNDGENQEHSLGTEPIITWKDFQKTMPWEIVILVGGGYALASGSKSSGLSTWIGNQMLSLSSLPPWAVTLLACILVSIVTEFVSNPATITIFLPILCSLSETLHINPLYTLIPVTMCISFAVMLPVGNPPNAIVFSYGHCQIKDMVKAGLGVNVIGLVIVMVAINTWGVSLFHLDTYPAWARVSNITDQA

SAT-1 = molecular target: T6, SAT-1 (Rattus norvegicus, UniProt P45380); details: rat hepatocytes; cited from earlier work
T6 sequence (P45380 1-703): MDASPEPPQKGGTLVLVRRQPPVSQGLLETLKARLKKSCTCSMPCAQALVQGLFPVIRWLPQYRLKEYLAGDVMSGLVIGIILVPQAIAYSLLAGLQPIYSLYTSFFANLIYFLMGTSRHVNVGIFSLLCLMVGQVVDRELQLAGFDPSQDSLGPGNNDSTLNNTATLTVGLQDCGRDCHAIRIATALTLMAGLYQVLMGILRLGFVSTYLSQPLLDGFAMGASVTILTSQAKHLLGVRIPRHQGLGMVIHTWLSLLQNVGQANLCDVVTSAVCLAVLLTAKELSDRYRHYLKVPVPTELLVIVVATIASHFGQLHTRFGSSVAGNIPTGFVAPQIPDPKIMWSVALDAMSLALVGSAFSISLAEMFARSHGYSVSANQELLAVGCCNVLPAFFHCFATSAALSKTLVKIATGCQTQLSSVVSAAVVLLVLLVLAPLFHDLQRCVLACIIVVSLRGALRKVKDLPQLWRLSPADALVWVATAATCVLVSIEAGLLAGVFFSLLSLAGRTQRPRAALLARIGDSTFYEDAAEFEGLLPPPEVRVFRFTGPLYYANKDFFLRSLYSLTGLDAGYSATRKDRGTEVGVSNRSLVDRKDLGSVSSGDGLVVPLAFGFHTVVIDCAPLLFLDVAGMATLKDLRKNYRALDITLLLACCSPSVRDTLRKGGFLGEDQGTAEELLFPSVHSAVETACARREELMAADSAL

selectins = details: cited from earlier work

Row | Compound | inhibition of SUT-3-mediated sulfate uptake (SUT-3) | sensitivity of DTD to DIDS (DTD) | sensitivity of NaSi-1 sulfate transport to DIDS (NaSi-1) | sensitivity of DRA to DIDS (DRA) | sensitivity of SUT-1 sulfate transport to DIDS (SUT-1) | sensitivity of SAT-1 sulfate transport to DIDS (SAT-1) | endothelial expression of selectins (selectins)
1 | O=S(=O)(O)c1cc(N=C=S)ccc1C=Cc1ccc(N=C=S)cc1S(=O)(=O)O [DIDS, 4,4′-diisothiocyanostilbene-2,2′-disulfonic acid] | sensitive; also recorded: efficiently inhibited | sensitive | resistant | sensitive | resistant | sensitive | –
2 | COc1cc2c(c(OC)c1OC)-c1ccc(OC)c(=O)cc1[C@@H](NC(C)=O)CC2 [colchicine] | – | – | – | – | – | – | downregulate
